Literature values in US20210319872A1, “DRUG AND DEVICE COMBINATION PRODUCTS WITH IMPROVED SAFETY AND EFFICACY PROFILES” (priority 2016, published 2021).
Where two headings read alike, the source gives them in different places.

How the values were obtained:
[1] = older adults
[2] = refractory oropharyngeal candidiasis

[Li] [lithium]
clearance rate [1]: reduced

COC(=O)C1=C(C)NC(C)=C(C(=O)OCC(C)C)C1c1ccccc1[N+](=O)[O-] (stereo not drawn) [Nisoldipine (Sular)]
Dizziness (in vivo): Neurologic: Dizziness (5%), Headache (22%) | Headache (in vivo): Neurologic: Dizziness (5%), Headache (22%) | Palpitations (in vivo): Cardiovascular: Palpitations (3%), Peripheral edema (22%), | Peripheral edema (in vivo): Cardiovascular: Palpitations (3%), Peripheral edema (22%), | Pharyngitis (in vivo): Respiratory: Pharyngitis (5%), Sinusitis | Serious side effects, listed without incidence or only as rare (in vivo): Cardiovascular: Myocardial infarction | Vasodilatation (in vivo): Vasodilatation (4%)

O=C1CN=C(c2ccccc2Cl)c2cc([N+](=O)[O-])ccc2N1 [Klonopin (clonazepam)]
Ataxia (in vivo): Neurologic: Ataxia (5% to 30%), Coordination problem (6%), | Coordination problem (in vivo): Neurologic: Ataxia (5% to 30%), Coordination problem (6%), | Depression (in vivo): Psychiatric: Depression (7%), Suicidal thoughts | Dizziness (in vivo): Dizziness (8%), Somnolence (37% to 50%) | Fatigue (in vivo): Other: Fatigue (7%) | Problem behavior (in vivo): Psychiatric: Problem behavior (25%) | Serious side effect, Psychiatric (in vivo): Psychiatric: Depression (7%), Suicidal thoughts | Serious side effect, Respiratory (in vivo): Respiratory: Respiratory depression | Somnolence (in vivo): Dizziness (8%), Somnolence (37% to 50%) | Upper respiratory infection (in vivo): Respiratory: Upper respiratory infection (8%)

CC[C@@H](C(N)=O)N1CCCC1=O [Levetiracetam (Keppra)]
Asthenia (in vivo): Neurologic: Asthenia (15%), Dizziness (5% to 9%), Headache | Cough (in vivo): Respiratory: Cough (2% to 9%), Nasopharyngitis (7% to 15%) | Decreased bone mineral density (in vivo): Musculoskeletal: Decreased bone mineral density (70%), Neck pain | Decreased white blood cell count (in vivo): blood cell count (2.4% to 3.2%), Eosinophilia (8.6%), Neutropenia | Dizziness (in vivo): Neurologic: Asthenia (15%), Dizziness (5% to 9%), Headache | Eosinophilia (in vivo): blood cell count (2.4% to 3.2%), Eosinophilia (8.6%), Neutropenia | Fatigue (in vivo): Other: Fatigue (10% to 11%) | Headache (in vivo): (14% to 19%) | Infectious disease (in vivo): Immunologic: Infectious disease (13%) | Nasopharyngitis (in vivo): Respiratory: Cough (2% to 9%), Nasopharyngitis (7% to 15%) | Neck pain (in vivo): (2% to 8%) | Neutropenia (in vivo): (partial onset seizures, adults, 2.4%), Pancytopenia, | Somnolence (in vivo): Neurologic: Somnolence (8% to 45%) | Suicidal intent (in vivo): Psychiatric: Suicidal intent (0.5%), Suicide | Vomiting (in vivo): Gastrointestinal: Loss of appetite (3% to 8%), Vomiting (15%)

CN1CC[C@]23c4c5ccc(O)c4O[C@H]2C(=O)CC[C@@]3(O)[C@H]1C5 [Oxymorphone, reference compound]
Abdominal pain (in vivo): Gastrointestinal: Abdominal pain (1% to less than 10%), | Bowel obstruction (in vivo): Gastrointestinal: Bowel obstruction (less than 1%) | Constipation (in vivo): Constipation (4.1% to 27.6%), Nausea (2.9% to 33.1%), Vomiting | Fatigue (in vivo): Other: Fatigue (1% to less than 10%), Fever (1% to 14.2%) | Fever (in vivo): Other: Fatigue (1% to less than 10%), Fever (1% to 14.2%) | Headache (in vivo): 17%), Headache (4% to 12%), Somnolence (2% to 19%) | Hypotension (in vivo): Cardiovascular: Hypotension (less than 10%) | Hypoxia (in vivo): < 10%) | Nausea (in vivo): Constipation (4.1% to 27.6%), Nausea (2.9% to 33.1%), Vomiting | Pruritus (in vivo): Dermatologic: Pruritus (less than or equal to 15.2%), Sweating | Serious side effect, Neurologic (in vivo): Neurologic: Coma | Serious side effect, Respiratory (in vivo): Respiratory: Respiratory depression | Somnolence (in vivo): 17%), Headache (4% to 12%), Somnolence (2% to 19%) | Sweating symptom (in vivo): symptom (1% to less than 10%) | Vomiting (in vivo): (less than or equal to 15.6%), Xerostomia (1% to less than 10%) | Xerostomia (in vivo): (less than or equal to 15.6%), Xerostomia (1% to less than 10%)

CN1C(=O)CN=C(c2ccccc2)c2cc(Cl)ccc21 [Valium (diazepam)]
Common side effect, Cardiovascular (in vivo): Cardiovascular: Hypotension | Common side effect, Musculoskeletal (in vivo): Musculoskeletal: Muscle weakness | Common side effect, Neurologic (in vivo): Neurologic: Ataxia, Incoordination (3%, rectal gel), Somnolence | Common side effect, Other (in vivo): Other: Fatigue | Common side effect, Respiratory (in vivo): Respiratory: Respiratory depression | Diarrhea (in vivo): Gastrointestinal: Diarrhea (4%, rectal gel) | Euphoria (in vivo): Psychiatric: Euphoria (3%, rectal gel) | Incoordination (in vivo): Neurologic: Ataxia, Incoordination (3%, rectal gel), Somnolence | Rash (in vivo): Dermatologic: Rash (3%, rectal gel) | Serious side effect, Hematologic (in vivo): Hematologic: Neutropenia

Cc1cc2c(s1)Nc1ccccc1N=C2N1CCN(C)CC1 [Olanzapine (Zyprexa)]
Akathisia (in vivo): Neurologic: Akathisia (5% to 27%), Asthenia (2% to 20%), | Asthenia (in vivo): Neurologic: Akathisia (5% to 27%), Asthenia (2% to 20%), | Constipation (in vivo): Gastrointestinal: Constipation (4% to 11%), Xerostomia (Adult, up | Dizziness (in vivo): Dizziness (Adult, 1.6% to 18%; adolescent, 7% to 8%), | Hyperprolactinemia (in vivo): adolescent, up to 14%), Hyperprolactinemia (30% to 61.1%), | Increased appetite (in vivo): Increased appetite (Adult, 3% to 24%; adolescent, 17% to 29%), | Orthostatic hypotension (in vivo): Cardiovascular: Orthostatic hypotension (More than 5%), | Peripheral edema (in vivo): Peripheral edema (3% to 6%) | Personality disorder (in vivo): Psychiatric: Personality disorder (8%) | Serum triglycerides raised (in vivo): Serum triglycerides raised (20.8% to 40%), Weight increased, 7% | Somnolence (in vivo): Somnolence (IM, 6%; oral, 20% to 52%), Tremor (1% to 23%) | Tremor (in vivo): Somnolence (IM, 6%; oral, 20% to 52%), Tremor (1% to 23%) | Somnolence (in vivo, po): Somnolence (IM, 6%; oral, 20% to 52%), Tremor (1% to 23%)

COc1ccc2c3c1O[C@H]1C(=O)CC[C@H]4[C@@H](C2)N(C)CC[C@]314 [Hydrocodone, reference compound]
Abdominal pain (in vivo): Gastrointestinal: Abdominal pain (1% to less than 5%), | Constipation (in vivo): Constipation (3% to 11%), Nausea (7% to 10%), Vomiting (3% to | Difficulty swallowing (in vivo): Gastrointestinal: Difficulty swallowing (less than 1%) | Dizziness (in vivo): Neurologic: Dizziness (2% to 3%), Headache (2% to 4%), | Fatigue (in vivo): Other: Fatigue (1% to 4%) | Headache (in vivo): Neurologic: Dizziness (2% to 3%), Headache (2% to 4%), | Hypotension (in vivo): Cardiovascular: Hypotension (less than 1%), Orthostatic | Opioid withdrawal (in vivo): Opioid withdrawal (less than 1%) | Orthostatic hypotension (in vivo): hypotension (less than 1%), Prolonged QT interval, Syncope | Peripheral edema (in vivo): Cardiovascular: Peripheral edema (1% to less than 5%%) | Pruritus (in vivo): Dermatologic: Pruritus (0% to less than 5%) | Serious side effect, Cardiovascular (in vivo): hypotension (less than 1%), Prolonged QT interval, Syncope | Serious side effect, Neurologic (in vivo): Neurologic: Raised intracranial pressure, Seizure | Serious side effect, Other (in vivo): Other: Drug withdrawal syndrome in neonate of dependent mother, | Serious side effect, Respiratory (in vivo): Respiratory: Respiratory depression | Somnolence (in vivo): Somnolence (1% to 5%), Tremor (3%) | Spasm (in vivo): Musculoskeletal: Spasm (1% to less than 5%) | Tremor (in vivo): Somnolence (1% to 5%), Tremor (3%) | Upper respiratory infection (in vivo): Respiratory: Upper respiratory infection (1% to 3%) | Urinary tract infectious disease (in vivo): Renal: Urinary tract infectious disease (1% to 5%) | Xerostomia (in vivo): 6%), Xerostomia (1% to less than 5%)

C=CCC1(C(C)CCC)C(=O)NC(=O)NC1=O (stereo not drawn) [Seconal (secobarbital)]
Complex mannerisms - behavior (in vivo): Psychiatric: Complex mannerisms - behavior (Less than 1%.) | Liver damage (in vivo): Hepatic: Liver damage (less than 1%) | Megaloblastic anemia, With prolonged use (in vivo): < 1%) | Serious side effect, Other (in vivo): Other: Drug dependence, Withdrawal sign or symptom | Somnolence (in vivo): Neurologic: Somnolence (1% to 3%)

CC[C@@H]([C@H](C)O)n1ncn(-c2ccc(N3CCN(c4ccc(OC[C@@H]5CO[C@@](Cn6cncn6)(c6ccc(F)cc6F)C5)cc4)CC3)cc2)c1=O [Noxafil]
Cholestasis (frequency in words): Hepatic: Cholestasis (rare), Liver failure (rare) | Liver failure (frequency in words): Hepatic: Cholestasis (rare), Liver failure (rare) | Torsades de pointes (in vivo): pointes (less than 5%) | Diarrhea (oropharyngeal candidiasis): oropharyngeal candidiasis, 10%; refractory oropharyngeal | Fever (oropharyngeal candidiasis): 6% | Headache (oropharyngeal candidiasis): 8% | Nausea (oropharyngeal candidiasis): oropharyngeal candidiasis, 9%; refractory oropharyngeal | Vomiting (oropharyngeal candidiasis): oropharyngeal candidiasis, 7%; refractory oropharyngeal | Diarrhea [2]: 13% | Fever [2]: 34% | Headache [2]: 20% | Nausea [2]: 29% | Vomiting [2]: candidiasis, 28%)

C[C@H](CS)C(=O)N1CCC[C@H]1C(=O)O [Captopril (Capoten)]
Agranulocytosis (in vivo): Hematologic: Agranulocytosis (0.1% to 0.2%), Neutropenia (0.1% | Angioedema (in vivo): Other: Angioedema (0.1%) | Cough (in vivo): Respiratory: Cough (0.5% to 2%) | Hyperkalemia (in vivo): Endocrine metabolic: Hyperkalemia (11%) | Neutropenia (in vivo): Hematologic: Agranulocytosis (0.1% to 0.2%), Neutropenia (0.1%

COc1ccc(-n2nc(C(N)=O)c3c2C(=O)N(c2ccc(N4CCCCC4=O)cc2)CC3)cc1 [Apixaban (Eliquis)]
Bleeding gums (in vivo): Gastrointestinal: Bleeding gums (Less than 0.1% to 1.4%) | Bleeding, Major (in vivo): prophylaxis, 2.88% to 4.83%), Bleeding, Major (0.1% to 2.13%), | Conjunctival hemorrhage (in vivo): Ophthalmic: Conjunctival hemorrhage (0.1% to less than 1%), | Contusion (in vivo): Dermatologic: Contusion (1.4% to 2.2%) | Hematochezia (in vivo): pulmonary embolism, 0.1% to less than 1%), Hematochezia (0.1% | Hematoma (in vivo): Hematologic: Hematoma (DVT, 1.3% to 1.5%) | Hemorrhage (in vivo): Hemorrhage (0.1% to 1.4%), Hemorrhage, Operative (DVT | Hemorrhage of muscle (in vivo): Musculoskeletal: Hemorrhage of muscle (Less than 0.1% to less | Hemorrhage, Operative (in vivo): prophylaxis, 0.1% to less than 1%) | Hypersensitivity reaction (in vivo): < 1%) | Intracranial hemorrhage (in vivo): fibrillation, 0.33% to 0.34%/year), Non-traumatic spinal subdural | Intraocular hemorrhage (in vivo): Intraocular hemorrhage (Less than 0.1% to less than 1%), Retinal | Liver function tests abnormal (in vivo): 0.1% to less than 1%), Serum bilirubin raised (DVT prophylaxis, | Menorrhagia (in vivo): Reproductive: Menorrhagia (1.4%) | Retinal hemorrhage (in vivo): hemorrhage (0.1% to less than 1%) | Serum bilirubin raised (in vivo): 0.1% to less than 1%)
